Where “and” joins values, the source holds several entries; their conditions need not be identical. Identical values can stand only once. Toxic doses and inconclusive results are not listed. The calls were made as follows: active = survival T/C of 150% or more; inactive = T/C below 125% in these data.
System: P388 leukemia ip, CD2F1 mice, survival T/C
Test: NCI In Vivo Anticancer Drug Screen. Data for tumor model P388 Leukemia (intraperitoneal) in CD2F1 (CDF1) mice
Conditions: endpoint: median survival time, higher = longer survival
Method in brief: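 Mice carrying the transplanted tumor received test compound or vehicle. Survival was recorded in each group, and the value is the treated-group measurement divided by that of the vehicle-treated control group.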

[1] = dose: 50.0 mg/kg/injection, schedule: Q01DX009 (ip), vehicle: saline with Tween-80
[2] = dose: 100.0 mg/kg/injection, schedule: Q01DX009 (ip), vehicle: saline with Tween-80
[3] = dose: 200.0 mg/kg/injection, schedule: Q01DX009 (ip), vehicle: saline with Tween-80
[4] = dose: 50.0 mg/kg/injection, schedule: Q01DX005 (ip), vehicle: saline with Tween-80
[5] = dose: 100.0 mg/kg/injection, schedule: Q01DX005 (ip), vehicle: saline with Tween-80
[6] = dose: 200.0 mg/kg/injection, schedule: Q01DX005 (ip), vehicle: saline with Tween-80
[7] = dose: 50.0 mg/kg/injection, schedule: Q01DX005 (ip), vehicle: Klucel (hydroxypropylcellulose) (HPC)
[8] = dose: 60.0 mg/kg/injection, schedule: Q01DX005 (ip), vehicle: saline with Tween-80
[9] = dose: 120.0 mg/kg/injection, schedule: Q01DX005 (ip), vehicle: saline with Tween-80
[10] = dose: 240.0 mg/kg/injection, schedule: Q01DX005 (ip), vehicle: saline with Tween-80
[11] = dose: 50.0 mg/kg/injection, schedule: Q01DX009 (ip), vehicle: saline
[12] = dose: 100.0 mg/kg/injection, schedule: Q01DX009 (ip), vehicle: saline
[13] = dose: 200.0 mg/kg/injection, schedule: Q01DX009 (ip), vehicle: saline
[14] = dose: 100.0 mg/kg/injection, schedule: Q01DX005 (ip), vehicle: Klucel (hydroxypropylcellulose) (HPC)

Measured: T/C

CN(c1ccccc1)C1C=C(c2ccccc2)OC(=O)C1(Cl)Cl (centres undefined)
inactive: [1] 92 % of control | [2] 95 % of control | [3] 98 % of control

Cc1ccc(-n2c(=S)n(-c3ccccc3C)c3nc4ccccc4nc2/c3=N\Nc2ccc(Cl)cc2)cc1
inactive: [4] 92 % of control | [5] 88 % of control | [6] 95 % of control

COc1ccc2c(c1)C(c1cccc3ccccc13)OC2 (centres undefined)
inactive: dose: 12.5 mg/kg/injection, schedule: Q01DX005 (ip), vehicle: Klucel (hydroxypropylcellulose) (HPC) 100 % of control | dose: 25.0 mg/kg/injection, schedule: Q01DX005 (ip), vehicle: Klucel (hydroxypropylcellulose) (HPC) 88 % of control | [7] 86 % of control and 91 % of control

c1ccc(-c2n[nH]c3ccccc23)cc1
inactive: dose: 25.0 mg/kg/injection, schedule: Q04DX003 (ip), vehicle: saline with Tween-80 101 % of control | dose: 50.0 mg/kg/injection, schedule: Q04DX003 (ip), vehicle: saline with Tween-80 110 % of control | dose: 100.0 mg/kg/injection, schedule: Q04DX003 (ip), vehicle: saline with Tween-80 101 % of control | dose: 200.0 mg/kg/injection, schedule: Q04DX003 (ip), vehicle: saline with Tween-80 99 % of control

N#CC(C(=O)C(=O)Nc1ccccc1)c1c(Cl)cccc1Cl (centres undefined)
inactive: [8] 98 % of control | [9] 104 % of control | [10] 98 % of control

Cc1nc2c(cc1C#N)C(NCCO)Oc1ccccc1-2 (centres undefined)
inactive: [8] 97 % of control | [9] 97 % of control | [10] 99 % of control

O=C(CC(=O)NO)NO
inactive: [1] 106 % of control | [11] 115 % of control | [2] 108 % of control | [12] 110 % of control | [3] 108 % of control | [13] 108 % of control

NCCCCC(C(=O)NCC(=O)O)N(C(=O)OCc1ccccc1)C(=O)OCc1ccccc1 (centres undefined)
inactive: [4] 101 % of control | [5] 101 % of control | [6] 90 % of control

CC(NC(=O)OCC1c2ccccc2-c2ccccc21)C(=O)O (centres undefined)
inactive: [7] 103 % of control | [14] 98 % of control | dose: 200.0 mg/kg/injection, schedule: Q01DX005 (ip), vehicle: Klucel (hydroxypropylcellulose) (HPC) 96 % of control

O=C(Nc1ccc(Cl)c(Cl)c1)NC1CC1
inactive: [1] 119 % of control | [2] 102 % of control | [3] 93 % of control

C=C(Br)C(=NC(C)(C)C)Nc1cccc(Cl)c1
inactive: [7] 102 % of control | [14] 107 % of control

Cc1[nH]c2ccc(N(C)C)cc2c(=O)c1CN1CCN(C)CC1
inactive: [1] 111 % of control | [2] 111 % of control | [3] 110 % of control

O=C1C=CC(=O)C2=C1C1CCCC1C1CCCC21 (centres undefined)
inactive: dose: 25.0 mg/kg/injection, schedule: Q01DX009 (ip), vehicle: saline 123 % of control | [11] 105 % of control | [12] 113 % of control

O=C(O)CCCCCCCCCCCCCCC1C=CCC1 (centres undefined)
inactive: dose: 100.0 mg/kg/injection, schedule: Q01DX001 (ip), vehicle: saline 101 % of control | dose: 200.0 mg/kg/injection, schedule: Q01DX001 (ip), vehicle: saline 100 % of control | dose: 400.0 mg/kg/injection, schedule: Q01DX001 (ip), vehicle: saline 98 % of control

CN1CCc2[nH]nc(-c3n[nH]c4c3CN(C)CC4)c2C1
inactive: dose: 60.0 mg/kg/injection, schedule: Q01DX005 (ip), vehicle: saline 100 % of control | dose: 120.0 mg/kg/injection, schedule: Q01DX005 (ip), vehicle: saline 86 % of control | dose: 240.0 mg/kg/injection, schedule: Q01DX005 (ip), vehicle: saline 93 % of control

O=C1CC23c4ccccc4N4C(=O)CC5OCC=C6CN1C2CC6C5C43 (centres undefined)
inactive: [8] 101 % of control | [9] 92 % of control | [10] 92 % of control

O=C(/C=C/c1cccc([N+](=O)[O-])c1)c1ccccc1
inactive: [1] 99 % of control | [2] 92 % of control | [3] 92 % of control | dose: 400.0 mg/kg/injection, schedule: Q01DX009 (ip), vehicle: saline with Tween-80 100 % of control

CC(C)(C)c1cc(/C=C2/OC(=O)c3ccccc32)cc(C(C)(C)C)c1O
inactive: dose: 100.0 mg/kg/injection, schedule: Q04DX002 (ip), vehicle: saline 99 % of control | dose: 200.0 mg/kg/injection, schedule: Q04DX002 (ip), vehicle: saline 100 % of control | dose: 400.0 mg/kg/injection, schedule: Q04DX002 (ip), vehicle: saline 96 % of control

Cc1ccc(N2CCCCN(c3ccc(C)cc3)/C(c3ccccc3)=C\2c2ccccc2)cc1
inactive: dose: 100.0 mg/kg/injection, schedule: Q01DX001 (ip), vehicle: Klucel (hydroxypropylcellulose) (HPC) 91 % of control | dose: 200.0 mg/kg/injection, schedule: Q01DX001 (ip), vehicle: Klucel (hydroxypropylcellulose) (HPC) 91 % of control | dose: 400.0 mg/kg/injection, schedule: Q01DX001 (ip), vehicle: Klucel (hydroxypropylcellulose) (HPC) 101 % of control and 91 % of control

CC(C)C1CC(O)C(C)C(CN2CCCCC2)C1 (centres undefined)
inactive: [7] 105 % of control | [14] 104 % of control

ClC1=C(Cl)[C@@]2(Cl)[C@H]3[C@H]4C[C@H]([C@@H]5O[C@H]45)[C@H]3[C@@]1(Cl)C2(Cl)Cl
inactive: dose: 12.5 mg/kg/injection, schedule: Q04DX003 (ip), vehicle: Klucel (hydroxypropylcellulose) (HPC) 95 % of control

Cc1cc(C)n2nc3c4ccsc4ncc3c2n1
inactive: dose: 25.0 mg/kg/injection, schedule: Q04DX002 (ip), vehicle: saline with Tween-80 105 % of control and 95 % of control | dose: 50.0 mg/kg/injection, schedule: Q04DX002 (ip), vehicle: saline with Tween-80 99 % of control and 105 % of control | dose: 100.0 mg/kg/injection, schedule: Q04DX002 (ip), vehicle: saline with Tween-80 116 % of control and 118 % of control and 119 % of control

COC(=O)C1(C)CCCC1=O (centres undefined)
inactive: dose: 50.0 mg/kg/injection, schedule: Q01DX009 (ip), vehicle: other 96 % of control | dose: 100.0 mg/kg/injection, schedule: Q01DX009 (ip), vehicle: other 95 % of control | dose: 200.0 mg/kg/injection, schedule: Q01DX009 (ip), vehicle: other 99 % of control

O=C(O)COc1cc(Cl)c(Cl)cc1Cl
inactive: dose: 6.25 mg/kg/injection, schedule: Q01DX005 (ip), vehicle: saline with Tween-80 98 % of control | dose: 12.5 mg/kg/injection, schedule: Q01DX005 (ip), vehicle: saline with Tween-80 100 % of control | dose: 25.0 mg/kg/injection, schedule: Q01DX005 (ip), vehicle: saline with Tween-80 98 % of control | [4] 98 % of control | [5] 106 % of control | [6] 97 % of control

O=C(CCCCCCCCC(=O)Nc1ccccc1)Nc1ccccc1
inactive: dose: 50.0 mg/kg/injection, schedule: Q01DX001 (ip), vehicle: saline with Tween-80 103 % of control | dose: 100.0 mg/kg/injection, schedule: Q01DX001 (ip), vehicle: saline with Tween-80 103 % of control | dose: 200.0 mg/kg/injection, schedule: Q01DX001 (ip), vehicle: saline with Tween-80 100 % of control | dose: 400.0 mg/kg/injection, schedule: Q01DX001 (ip), vehicle: saline with Tween-80 108 % of control

CC1CCC2(CC1)CC(=O)N(N)C2=O (centres undefined)
inactive: [8] 104 % of control | [9] 105 % of control | [10] 108 % of control

CCCCCCC[N+]1([O-])CCOCC1
inactive: [11] 99 % of control | [12] 100 % of control | [13] 97 % of control

COC1=NCc2ccccc2C2(OC)C(C)(C)C12C#N (centres undefined)
inactive: [4] 96 % of control | [5] 99 % of control | [6] 101 % of control

Source: PubChem BioAssay AID330 (DTP/NCI, 2004)
